From patent US20090286866A1, “Double compartment skincare products comprising avermectin/milbemycin compounds” (GALDERMA S.A., priority 2006, published 2009)

Assays:
[1] = Maximum solubility of ivermectin in various excipients; assay type: physicochemical; conditions: room temperature
Experimental: Study of the maximum solubility of ivermectin at T=1 hour at room temperature in various excipients.

[2] = Comparative study of the chemical stability of ivermectin in various excipients; assay type: physicochemical
Description: Comparative study of the chemical stability of ivermectin in various excipients.

ivermectin
Maximum solubility ([1]; in Alkyl benzoate, T=1 hour): 1.60 % (m/m) | Maximum solubility ([1]; in Capric/caprylic triglycerides, T=1 hour): 1.70 % (m/m) | Maximum solubility ([1]; in Diisopropyl adipate, T=1 hour): 10.40 % (m/m) | Maximum solubility ([1]; in Dimethyl isosorbide, T=1 hour): 35.20 % (m/m) | Maximum solubility ([1]; in Ethanol rectapur, T=1 hour): 14.47 % (m/m) | Maximum solubility ([1]; in Macrogol 15 hydroxystearate, T=1 hour): 10.60 % (m/m) | Maximum solubility ([1]; in N-Methyl-2-pyrrolidone, T=1 hour): 58.13 % (m/m) | Maximum solubility ([1]; in Octyl dodecanol, T=1 hour): 2.50 % (m/m) | Maximum solubility ([1]; in Oleyl alcohol, T=1 hour): 3.48 % (m/m) | Maximum solubility ([1]; in PEG 400, T=1 hour): 9.14 % (m/m) | Maximum solubility ([1]; in PPG 15 stearyl ether, T=1 hour): 3.30 % (m/m) | Maximum solubility ([1]; in Phenoxyethanol, T=1 hour): 15.70 % (m/m) | Maximum solubility ([1]; in Poloxamer 124, T=1 hour): 7.50 % (m/m) | Maximum solubility ([1]; in Polysorbate 80, T=1 hour): 10.31 % (m/m) | Maximum solubility ([1]; in Propylene glycol (PG), T=1 hour): 21.83 % (m/m) | Maximum solubility ([1]; in Triacetin, T=1 hour): 7.22 % (m/m) | Amount after storage at 25° C. for 1 month ([2]; in Benzyl alcohol, 25° C.): 99.01% | Amount after storage at 40° C. for 1 month ([2]; in Benzyl alcohol, 40° C.): 98.62% | Amount at T0 ([2]; in Benzyl alcohol, T0): 98.72% | Amount after storage at 25° C. for 1 month ([2]; in Diisopropyl adipate, 25° C.): 97.19% | Amount after storage at 40° C. for 1 month ([2]; in Diisopropyl adipate, 40° C.): 96.70% | Amount at T0 ([2]; in Diisopropyl adipate, T0): 102.5% | Amount after storage at 25° C. for 1 month ([2]; in Macrogol 15-hydroxystearate, 25° C.): 95.32% | Amount after storage at 40° C. for 1 month ([2]; in Macrogol 15-hydroxystearate, 40° C.): 71.88% | Amount at T0 ([2]; in Macrogol 15-hydroxystearate, T0): 98.76% | Amount after storage at 25° C. for 1 month ([2]; in PPG 15-stearyl ether, 25° C.): 98.61% | Amount after storage at 40° C. for 1 month ([2]; in PPG 15-stearyl ether, 40° C.): 98.07% | Amount at T0 ([2]; in PPG 15-stearyl ether, T0): 102.48% | Amount after storage at 25° C. for 1 month ([2]; in Phenoxyethanol, 25° C.): 97.77% | Amount after storage at 40° C. for 1 month ([2]; in Phenoxyethanol, 40° C.): 98.56% | Amount at T0 ([2]; in Phenoxyethanol, T0): 99.42% | Amount after storage at 25° C. for 1 month ([2]; in Poloxamer 124, 25° C.): 98.19% | Amount after storage at 40° C. for 1 month ([2]; in Poloxamer 124, 40° C.): 92.34% | Amount at T0 ([2]; in Poloxamer 124, T0): 98.09% | Stability of ivermectin (in words) ([2]; in diisopropyl adipate, benzyl alcohol, PPG-15 stearyl ether and phenoxyethanol, at room temperature or at 40° C.): good stability | Stability of ivermectin (in words) ([2]; in macrogol 15-hydroxystearate and in poloxamer, in particular at 40° C.): less stable
